Where two headings read alike, the source gives them in different places.
How the values were obtained:
[1] = system: porcine epidemic diarrhea virus (PEDV); conditions: for SI (=CC50/EC50): CC50 in eGFP-Vero cells / EC50 against mCherry-PEDV
[2] = system: porcine epidemic diarrhea virus (PEDV); assay: microbe, parasite or virus in culture; conditions: 15 h, read-out: EC50 ± SD

SMILES: CCC(CC)COC(=O)[C@H](C)N[P@](=O)(OC[C@H]1O[C@@](C#N)(c2ccc3c(N)ncnn23)[C@H](O)[C@@H]1O)Oc1ccccc1 [Remdesivir]
- Antiviral effect (mCherry expression and syncytia formation) ([1]; 50 µM, 15 h post-infection): completely inhibited
- SI (=CC50/EC50) [1]: >37
- SI (=CC50/EC50) ([1]; listed as remdesivir): > 37
- EC50 [2]: 2710 ± 700 nM
